Values quoted from earlier work in publication PMC5849076 (Biochemistry, 2018).

Assays:
[1] = biological target: DaCld (Dechloromonas aromatica, UniProt Q47CX0)
[2] = tested on: KpCld

Chain of DaCld (Q47CX0 35-282): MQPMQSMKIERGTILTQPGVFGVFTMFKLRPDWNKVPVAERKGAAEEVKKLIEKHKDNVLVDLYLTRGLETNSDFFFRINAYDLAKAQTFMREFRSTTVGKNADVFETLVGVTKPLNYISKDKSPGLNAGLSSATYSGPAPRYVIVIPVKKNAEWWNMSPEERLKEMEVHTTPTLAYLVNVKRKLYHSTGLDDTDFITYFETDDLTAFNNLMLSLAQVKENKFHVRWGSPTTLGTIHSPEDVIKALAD

## chlorite [ClO2^−]
[1]
  turnovers prior to irreversible inactivation: > 20,000 equivalents of ClO2^− per heme
[2]
  number of turnovers: 6700 ± 300 equivalents ClO2^−/heme
